Assay results reported in US11572475B2, “Carbocyanines for G-quadruplex DNA stabilization and telomerase inhibition” (GEORGIA STATE UNIVERSITY RESEARCH FOUNDATION, INC., priority 2011, dated 2023).

Columns and labels:
Format in all cases: binding
c-Myc quadruplex DNA = assay: Fluorescence titration with c-Myc quadruplex; conditions: fluorescence intensity of bound ligand divided by that of free ligand
Source text: (§1) Atoms absorb energy and can emit it as heat (vibrational relaxation), fast light emission (fluorescence), or slow light emission (phosphorescence). Most of the cyanines described herein fluoresce in response to near-infrared wavelengths of light absorption. As the cyanines bind to DNA, π-π stacking and hydrogen bonding is altered leading to a change in fluorescence emission. This change can be measured in direct correlation to DNA binding. In some cases an approximate binding constant can be determined from measuring fluorescence enhancement as DNA is titrated into a solution of fluorescent compound. Fluorescent enhancement, or the maximum emission divided by the minimum emission of the titration (compound saturated with DNA divided by free compound) at a fixed wavelength is useful to compare DNA affinity between a family of compounds.
(§2) A UV-Vis absorbance scan is first conducted to acquire the excitation wavelength. A 5 μM solution of compound in 1 mL, of Tris/K+ buffer is scanned from 800 nm to 200 nm at a rate of 60 nm/min with a 5 nm slit width. All DNAs are diluted in Tris/K+ buffer. The human telomere and c-Myc DNA are annealed into a quadruplex motif by heating at 95° C. in the presence of potassium ions in a hot water bath for approximately five minutes, then allowing the solution to slowly come to room temperature. In a fluorescence cell, an emission scan of 1 μM of compound in 1 mL of Tris Buffer is taken (Varian Cary Eclipse, Walnut Creek, Calif.) with appropriate parameters based on the excitation wavelength, an excitation slit width of 5 nm, and an emission slit width of 5 nm. Then 0.05 μM of DNA is titrated into the solution and scanned under the same conditions after each addition. The solution is titrated to saturation, at which the change in fluorescence intensity is nearly zero.
(§3) Due to the highly stabilized parallel quadruplex structure of c-Myc, thermal melting could not be considered for this sequence. Thus, fluorescence can be used to measure binding affinity towards the two quadruplex structures. […] Fluorescence enhancement, or the fluorescence intensity of the bound ligand divided by that of the free ligand, was considered in evaluating binding.

Duplex DNA = assay: Thermal melting UV-Vis absorbance, duplex DNA; conditions: for Change in Thermal Melting Points, Duplex, 1:1: ratio 1:1 (R); for Change in Thermal Melting Points, Duplex, 2:1: ratio 2:1 (R); for Change in Thermal Melting Points, Duplex, 4:1: ratio 4:1 (R); for Change in Thermal Melting Points, Duplex, 6:1: ratio 6:1 (R)
Protocol: (§4) Three DNA sequences were used: Human Telomere (HTelo), c-myc, and Duplex (Integrated DNA Technologies, San Diego, Calif.). The sequences are shown below:
(§5) The buffer used was 10 mM Tris base (Fischer Scientific, Fairlawn, N.J.), 50 mM Potassium Chloride (Fischer Scientific, Fairlawn, N.J.), with the pH adjusted to 7.5 with Hydrochloric Acid (Fischer Scientific, Fairlawn, N.J.).
(§6) DNA folding and unfolding (melting) can be measured using absorbance at a constant wavelength of 260 nm for duplex DNA and 295 nm for quadruplex DNA while the temperature is increased, for example from 25° C. to 95° C. At these wavelengths, the resulting curves decrease in absorbance for quadruplex and increase for duplex DNA. Buffer solution and presence of DNA-binding compounds alter the Tm melting temperature, or midpoint between fully folded and unfolded. An increase in melting temperature in the presence of DNA-binding compounds indicates a stabilizing effect of the compound on the DNA structure.
(§7) The selectivity of a given cyanine for quadruplex DNA can be evaluated using thermal melting. The number in parentheses next to the compound number corresponds to the compound number in Schemes 1 and 2.
(§8) Thermal melting studies were also performed on compounds T4 and T5 (Scheme 2) and ZK-14 and SP-2-36.

[1] = system: Human Telomere (HT) quadruplex DNA; assay: Thermal melting UV-Vis absorbance, quadruplex DNA; conditions: for Selectivity for quadruplex over duplex DNA by thermal melting: quadruplex vs duplex; for Change in Thermal Melting Points, Human Telomere (HT), 1:1: ratio 1:1 (R); for Change in Thermal Melting Points, Human Telomere (HT), 2:1: ratio 2:1 (R); for Change in Thermal Melting Points, Human Telomere (HT), 4:1: ratio 4:1 (R); for Change in Thermal Melting Points, Human Telomere (HT), 6:1: ratio 6:1 (R)
Protocol: as §4
The concentration of each DNA sample mixed with MilliQ water was determined by UV-Vis at 260 nm using their extinction coefficients. Quadruplexes from Human Telomere (Tel22) and c-myc were prepared by heating the corresponding oligonucleotides at 90° C. for 5 minutes in a 10 mM Tris/50 mM KCl buffer at pH 7.5 and then cooling to room temperature (to favor the intramolecular folding).
as §5, §6, §7, §8

[2] = system: Human Telomere (HT) quadruplex DNA; assay: Fluorescence titration with human telomere quadruplex; conditions: fluorescence intensity of bound ligand divided by that of free ligand
Source text: as §1, §2, §3

Row | SMILES | Fluorescence Enhancement, c-Myc (c-Myc quadruplex DNA) | Change in Thermal Melting Points, Duplex, 1:1 (Duplex DNA) | Change in Thermal Melting Points, Duplex, 2:1 (Duplex DNA) | Change in Thermal Melting Points, Duplex, 4:1 (Duplex DNA) | Change in Thermal Melting Points, Duplex, 6:1 (Duplex DNA) | Selectivity for quadruplex over duplex DNA by thermal melting [1] | Change in Thermal Melting Points, Human Telomere (HT), 1:1 [1] | Change in Thermal Melting Points, Human Telomere (HT), 2:1 [1] | Change in Thermal Melting Points, Human Telomere (HT), 4:1 [1] | Change in Thermal Melting Points, Human Telomere (HT), 6:1 [1] | Fluorescence Enhancement, HT [2] | Thermal Melting (Δ° C.), Duplex DNA, 1:1 ratio (Duplex DNA) | Thermal Melting (Δ° C.), Duplex DNA, 1:2 ratio (Duplex DNA) | Thermal Melting (Δ° C.), Duplex DNA, 1:4 ratio (Duplex DNA) | Thermal Melting (Δ° C.), Duplex DNA, 1:6 ratio (Duplex DNA) | Thermal Melting (Δ° C.), Quadruplex DNA, 1:1 ratio [1] | Thermal Melting (Δ° C.), Quadruplex DNA, 1:2 ratio [1] | Thermal Melting (Δ° C.), Quadruplex DNA, 1:4 ratio [1] | Thermal Melting (Δ° C.), Quadruplex DNA, 1:6 ratio [1]
1 | CC1(C)C(/C=C/C(Cl)=C/C=C2\N(CCC[N+](C)(C)C)c3ccccc3C2(C)C)=[N+](CCC[N+](C)(C)C)c2ccccc21.[Br-].[Br-].[Br-] [A-20 (42)] | 3.58 | 0 | 0.9 | 0.9 | 2.8 | selectively bind to quadruplex DNA with little or no binding to duplex DNA | 2.6 | 6.0 | 12.2 | 13.2 | 1.74 |  |  |  |  |  |  |  | 
2 | CC1(C)C(=CC=CC2=[N+](CCC[N+](C)(C)C)c3ccc(Cl)cc3C2(C)C)N(CCC[N+](C)(C)C)c2ccc(Cl)cc21.[Br-].[Br-].[Br-] [A-138 (17)] | 5.4 | 0.0 | 0.0 | −1.0 |  | selectively bind to quadruplex DNA with little or no binding to duplex DNA | 3.0 | 7.0 | 14.6 |  | 2.7 |  |  |  |  |  |  |  | 
3 | CC1(C)C(=CC=CC2=[N+](CCC[N+](C)(C)C)c3ccc(S(=O)(=O)[O-])cc3C2(C)C)N(CCC[N+](C)(C)C)c2ccc(S(=O)(=O)[O-])cc21.[Br-] [MH2 (31)] |  |  |  |  |  |  | 1.5 | 1.1 | 0.6 | 1.2 |  |  |  |  |  |  |  |  | 
4 | CC1(C)C(=CC=CC2=[N+](CCC[N+](C)(C)C)c3ccccc3C2(C)C)N(CCC[N+](C)(C)C)c2ccccc21.[Br-].[Br-].[Br-] [MH4 (26)] | 7.74 | 0 | 0.9 | −0.2 | 1.8 | selectively bind to quadruplex DNA with little or no binding to duplex DNA | 1.6 | 4.1 | 8.7 | 13.7 | 1.68 |  |  |  |  |  |  |  | 
5 | CC1(C)C(/C=C/C(=C/C=C2\N(CCC[N+](C)(C)C)c3ccccc3C2(C)C)c2ccncc2)=[N+](CCC[N+](C)(C)C)c2ccccc21 [SP-2-36] |  |  |  |  |  |  |  |  |  |  |  | 0.2 +/− 0.3 °C | 0.5 +/− 0.5 °C | 0.5 +/− 0.3 °C | 0.6 +/− 0.3 °C | 0.9 +/− 0.1 °C | 1.4 +/− 0.2 °C | 3.5 +/− 0.8 °C | 4.4 +/− 0.5 °C
6 | CC1(C)C(/C=C/C(Cl)=C/C=C2\N(CCC[N+](C)(C)C)c3ccc(F)cc3C2(C)C)=[N+](CCC[N+](C)(C)C)c2ccc(F)cc21 [T4] |  |  |  |  |  |  |  |  |  |  |  | 0.4 +/− 0.4 °C | 0.5 +/− 0.4 °C | 0.9 +/− 0.5 °C | 1.2 +/− 0.7 °C | 1.6 +/− 0.2 °C | 3.3 +/− 0.4 °C | 8.0 +/− 0.7 °C | 10.7 +/− 0.7 °C
7 | CC1(C)C(/C=C/C(Br)=C/C=C2\N(CCC[N+](C)(C)C)c3ccc(F)cc3C2(C)C)=[N+](CCC[N+](C)(C)C)c2ccc(F)cc21 [T5] |  |  |  |  |  | bind quite strongly to the quadruplex with excellent selectivity |  |  |  |  |  | 0.1 +/− 0.2 °C | 0.8 +/− 0.4 °C | 0.8 +/− 0.4 °C | 0.9 +/− 0.4 °C | 2.7 +/− 0.3 °C | 6.2 +/− 0.4 °C | 13.3 +/− 0.4 °C | 16.9 +/− 0.6 °C
8 | CCCCn1/c(=C/C=C/C2=[N+](CCC[N+](C)(C)C)c3ccccc3C2(C)C)c2cccc3cccc1c32 [ZK-14] |  |  |  |  |  | bind quite strongly to the quadruplex with excellent selectivity |  |  |  |  |  | 0.6 +/− 0.1 °C | 0.8 +/− 0.3 °C | 2.7 +/− 0.1 °C | 2.8 +/− 0.3 °C | 1.9 +/− 0.3 °C | 7.7 +/− 1.1 °C | 20.4 +/− 1.0 °C | 26.0 +/− 0.5 °C
